These results are taken from patent US11331364B2, “Use for JNK inhibitor molecules for treatment of various diseases” (Xigen Inflammation Ltd., priority 2014, dated 2022).

The structures appear in SMILES notation. Square brackets hold non-standard residues; d marks the D form. Peptide text beside a SMILES is read from it.

The test system of assay [1] is primary mouse cortical neuron cultures. Description: Neuronal apoptosis after Aβ42 stress in WT primary cortical neurons (cleaved PARP, caspase 3). The class given is cell-based. The procedure:
To this end, primary mouse cortical neuron cultures were exposed to either 2 μM or 25 μM of β-amyloid 1-42 (Aβ42) for 5 hours to induce Aβ42 cell stress. […] Levels of phosphorylated JNK (pJNK), total JNK (JNK), cleaved PARP and Tubulin (control) were determined. The ratio of pJNK/JNK served as a measure of JNK activity. The level of cleaved protein PARP, which is known to increase during apoptosis, served as a measure of neuronal apoptosis.
(§1) To obtain primary cortical neuronal cultures, E15.5 mice embryos were dissected in PBS (Phosphate Buffered Saline) 6% glucose, on ice. Embryos cortices were minced into small pieces and treated with PBS glucose trypsin (Sigma Aldrich, Saint-Louis, USA) for 20 min at 37° C. Dissociated cortical cells were cultured in Neurobasal media complemented with B27, Glutamax and penicillin-streptomycin (Gibco). Neurons were cultured at 37° C., 5% CO2 on pre-coated with poly-L-lysin (Sigma Aldrich) petri dishes. Neurons were cultured to maturity (7 days) before use.
To induce […] stress 2 μM of Aβ1-42 (Thermo Fisher Scientific, Mass., USA) were used during 5 h on cortical neurons. Aβ42-1 inversed peptide (Thermo Fisher Scientific) was used as negative control. AP 1-42 and Aβ42-1 were dissolved in pure water and incubated at 37° C. for 48 h before use. […]
(§2) For immunoblot analysis cells were lysed on ice in a lysis buffer containing […] NaPi pH 7.8, […] NaCl, 1% Triton, 0.5% DOC, 0.1% SDS, 10% glycerol, 0.1 μM calyculin A, 1 mM Na3VO4 and 1× of a protease inhibitor cocktail (Sigma Aldrich). Lysates were sonicated and centrifugated 10 min at 15000 g at 4° C. The supernatant protein concentration was determined with the Micro BCA protein assay kit (Thermo Scientific). Thirty micrograms of proteins were resolved on SDS-PAGE and transferred onto nitrocellulose membrane. After blocking with TBS 5% skim milk, the membranes were probed with primary antibodies to JNK full, c-Jun, PKR, eIF2α (Santa Cruz, Danvers, USA), pJNK (Millipore, Billerica, USA), phosphor eIF2a (Thermo Fisher Scientific), PARP and tubulin (Cell Signaling, Danvers, USA). IR Dyes 800 and 700 (Rockland Immunochemical Inc, Gilbertsville, USA) antibodies were used as secondary antibodies. Blots were reveled with Odyssey imaging system (LI-COR Biosciences, Lincoln, USA).
For caspase 3 activity analysis culture cell supernatants containing degenerating and dead neurons, and cell medium were collected in parallel of adhesive neurons lysis. Culture cell supernatants were centrifugated 10 min at 15000 g at 4° C. Pellets were then resuspended in lysis buffer and caspase 3 activity was measured by using the Caspase 3 Assay kit reagents and protocol (Abcam, Cambridge, UK).

Assay [2] concerns JNK. Description: JNK and c-Jun activation after Aβ42 stress in PKR−/− primary cortical neurons. It is filed as cell-based, mouse. The following applies: 10 μM, 2 μM Aβ42. The procedure: as §1
To induce […] stress 2 μM of Aβ1-42 (Thermo Fisher Scientific, Mass., USA) were used during 5 h on cortical neurons. Aβ42-1 inversed peptide (Thermo Fisher Scientific) was used as negative control. AP 1-42 and Aβ42-1 were dissolved in pure water and incubated at 37° C. for 48 h before use.
To inhibit JNK, cortical neurons were pre-treated with 10 μM of XG-104 1 h before cell-stress treatment.
as §2

The test system of assay [3] is K5.STAT3C mouse model of psoriasis. Description: K5.STAT3C mouse model of psoriasis, tape stripping, acanthosis. It is filed as in vivo. The following applies: 5 mg/kg IP QD D0-D5. The procedure:
To this end, two independent experiments are performed, each with at least 15 mice per experiment (5 mice per group). In each experiment, BK5.STAT3C heterozygous transgenic mice (Tg(KRT5-Stat3*A661C*N663C)1Jdg, henceforth referred to as K5.STAT3C mice) were randomly allocated to the following experimental groups 1 and 2, and wild-type littermates were allocated to group 3:
On Day 0, psoriasis is induced by tape striping (12-18 times) the back of the mouse after depilation. To this end, mice were anaesthetized using a Ketamine/Xylazine cocktail (100 mg/kg and 10 mg/kg respectively) intraperitoneally, shaved, depilated and skin injury was applied by 15 gentle strokes of tape stripping. Mice were treated with either vehicle (saline) or XG-104 right before anaesthesia on day 0 and once a day thereafter for 5 days. […]
Animals are weighed once on day 0. […] After termination of the study at day 5, approximately 1 cm^2 skin biopsy (lesions) is collected on the back of each mouse, embedded with Optimal Cutting Temperature (OCT)-containing moulds, frozen on dry ice, sectioned in 6 μm slices using a cryotome and stained with H&E. Epidermal thickness (acanthosis) is histologically measured blinded by two independent experimenters. One slide per mouse and 10 different zones of the sections are measured.

[4] abbreviates: WT neurons, 10 μM, vs Aβ42 treated WT neurons.

Regarding `CC(C)C[C@H](NC(=O)[C@H](CC(N)=O)NC(=O)[C@H](CC(C)C)NC(=O)[C@@H](NC(=O)[C@@H](C)NC(=O)[C@@H]1CCCN1C(=O)[C@H](CCCNC(=N)N)NC(=O)[C@@H](CCCCN)NC(=O)[C@@H]1CCCN1C(=O)[C@H](CCCNC(=N)N)NC(=O)[C@@H](CCCNC(=N)N)NC(=O)[C@H](CCCNC(=N)N)NC(=O)[C@H](CCCNC(=N)N)NC(=O)[C@H](CCC(N)=O)NC(=O)[C@@H](CCCNC(=N)N)NC(=O)[C@H](CCCNC(=N)N)NC(=O)[C@H](CCCCN)NC(=O)[C@H](CCCCN)NC(=O)[C@H](N)CCCNC(=N)N)[C@@H](C)O)C(=O)N[C@H](Cc1ccccc1)C(N)=O` [SEQ ID NO: 172, rKKRrQRRrRPkRPaTLNLf] (H-[dR]KKR[dR]QRR[dR]RP[dK]RP[dA]TLNL[dF]-NH2; N-terminus assumed), in assay [1] (2 μM Aβ42, 5 μM pre-treatment), the “decrease of PARP cleavage” value worked out at 46.8%. Besides, the “decrease of PARP cleavage” value in assay [1] (2 μM Aβ42, 10 μM pre-treatment) stood at 80.2%. For the same compound, the “decrease of PARP cleavage” value in assay [1] (25 μM Aβ42, 5 μM pre-treatment) was 69%. The “decrease of PARP cleavage” value in assay [1] (25 μM Aβ42, 10 μM pre-treatment) worked out at 80.6%. For the same compound, in assay [1] (Aβ42-induced apoptosis), the “efficiency to reduce apoptosis, 10 μM relative to 5 μM” value is reported as 1.7. Besides, in assay [1] (setting [4]), the “decrease of caspase 3 activity” value is listed as 78%, the “decrease of cleaved PARP expression level” value amounted to 77% and the “reduction of cleaved caspase 3 expression level” value is recorded as 61%. For the same compound, in assay [2] (PKR−/− cultures), the c-Jun activation result is reported as “does not modify c-Jun activation” and the “decrease of c-Jun protein expression” value stood at 62%. In addition, the JNK activation in assay [2] (PKR−/− neurons) is recorded as −60%. Moreover, in assay [3], the “acanthosis (epidermal thickness)” value is recorded as “significantly reduced the acanthosis” and the parakeratosis entry is listed as “absence of any parakeratosis”.
